For series [1] the following is noted: 14-membered ring.
In series [2] the target is T1, CFTR (F508del/MF-HBE cells) (Homo sapiens, UniProt P13569, DEL508-508).
T1 construct: human bronchial epithelial (HBE) cells derived from CF subjects heterozygous for F508del and a minimal function CFTR mutation (F508del/MF-HBE); endogenous in cells; host or cells: primary human bronchial epithelial (HBE) cells from CF subjects, genotype F508del/minimal function
Description: Ussing chamber assay of CFTR-mediated short-circuit currents (potentiator identification). The series is classed as cell-based. Conditions: CFTR-mediated Isc, 18-24 h incubation at 37° C. with 10 μM (14S)-8-[3-(2-{dispiro[2.0.2.1]heptan-7-yl}ethoxy)-1H-pyrazol-1-yl]-... corrector, 20% human serum. As to the method: Ussing Chamber Assay of CFTR-Mediated Short-Circuit Currents
Ussing chamber experiments were performed using human bronchial epithelial (HBE) cells derived from CF subjects heterozygous for F508del and a minimal function CFTR mutation (F508del/MF-HBE) and cultured as previously described (Neuberger T, Burton B, Clark H, Van Goor F Methods Mol Biol 2011:741:39-54). After four days the apical media was removed, and the cells were grown at an air liquid interface for >14 days prior to use.
To isolate the CFTR-mediated short-circuit (Isc) current, F508del/MF-HBE grown on Costar® Snapwell™ cell culture inserts were mounted in an Ussing chamber and the transepithelial ISC was measured under voltage-clamp recording conditions (Vhold=0 mV) at 37° C. The basolateral solution contained (in mM) 145 NaCl, 0.83 K2HPO4, 3.3 KH2PO4, 1.2 MgCl2, 1.2 CaCl2, 10 Glucose, 10 HEPES (pH adjusted to 7.4 with NaOH) and the apical solution contained (in mM) 145 NaGluconate, 1.2 MgCl2, 1.2 CaCl2, 10 glucose, 10 HEPES (pH adjusted to 7.4 with NaOH) and 30 μM amiloride to block the epithelial sodium channel. Forskolin (20 μM) was added to the apical surface to activate CFTR, followed by apical addition of a CFTR inhibitor cocktail consisting of BPO, GlyH-101 and CFTR inhibitor 172 (each at 20 μM final assay concentration) to specifically isolate CFTR currents. The CFTR-mediated Isc (μA/cm^2) for each condition was determined from the peak forskolin response to the steady-state current following inhibition.
Identification of Potentiator Compounds
The activity of the CFTR potentiator compounds on the CFTR-mediated Isc was determined in Ussing chamber studies as described above. The F508del/MF-HBE cell cultures were incubated with the potentiator compounds at a range of concentrations in combination with 10 μM (14S)-8-[3-(2-{dispiro[2.0.2.1]heptan-7-yl}ethoxy)-1H-pyrazol-1-yl]-12,12-dimethyl-2λ^6-thia-3,9,11,18,23-pentaazatetracyclo[17.3.1.111,14.05,10]tetracosa-1(22),5,7,9,19(23),20-hexaene-2,2,4-trione for 18-24 hours at 37° C. and in the presence of 20% human serum. The concentration of potentiator compounds and (14S)-8-[3-(2-{dispiro[2.0.2.1]heptan-7-yl}ethoxy)-1H-pyrazol-1-yl]-12,12-dimethyl-2λ^6-thia-3,9,11,18,23-pentaazatetracyclo[17.3.1.111,14.05,10]tetracosa-1(22),5,7,9,19(23),20-hexaene-2,2,4-trione used during the 18-24 hours incubations was kept constant throughout the Ussing chamber measurement of the CFTR-mediated Isc to ensure compounds were present throughout the entire experiment. The efficacy and potency of the putative F508del potentiators was compared to that of the known Vertex potentiator, ivacaftor (N-[2,4-bis(1,1-dimethylethyl)-5-hydroxyphenyl]-1,4-dihydro-4-oxoquinoline-3-carboxamide).

Structures are written as SMILES. Read-outs that look alike come from different tables or passages of the source. Where only a bound is given, the exact number is not on record here.

T1 sequence (P13569 with tags, fused parts or gaps DEL508-508): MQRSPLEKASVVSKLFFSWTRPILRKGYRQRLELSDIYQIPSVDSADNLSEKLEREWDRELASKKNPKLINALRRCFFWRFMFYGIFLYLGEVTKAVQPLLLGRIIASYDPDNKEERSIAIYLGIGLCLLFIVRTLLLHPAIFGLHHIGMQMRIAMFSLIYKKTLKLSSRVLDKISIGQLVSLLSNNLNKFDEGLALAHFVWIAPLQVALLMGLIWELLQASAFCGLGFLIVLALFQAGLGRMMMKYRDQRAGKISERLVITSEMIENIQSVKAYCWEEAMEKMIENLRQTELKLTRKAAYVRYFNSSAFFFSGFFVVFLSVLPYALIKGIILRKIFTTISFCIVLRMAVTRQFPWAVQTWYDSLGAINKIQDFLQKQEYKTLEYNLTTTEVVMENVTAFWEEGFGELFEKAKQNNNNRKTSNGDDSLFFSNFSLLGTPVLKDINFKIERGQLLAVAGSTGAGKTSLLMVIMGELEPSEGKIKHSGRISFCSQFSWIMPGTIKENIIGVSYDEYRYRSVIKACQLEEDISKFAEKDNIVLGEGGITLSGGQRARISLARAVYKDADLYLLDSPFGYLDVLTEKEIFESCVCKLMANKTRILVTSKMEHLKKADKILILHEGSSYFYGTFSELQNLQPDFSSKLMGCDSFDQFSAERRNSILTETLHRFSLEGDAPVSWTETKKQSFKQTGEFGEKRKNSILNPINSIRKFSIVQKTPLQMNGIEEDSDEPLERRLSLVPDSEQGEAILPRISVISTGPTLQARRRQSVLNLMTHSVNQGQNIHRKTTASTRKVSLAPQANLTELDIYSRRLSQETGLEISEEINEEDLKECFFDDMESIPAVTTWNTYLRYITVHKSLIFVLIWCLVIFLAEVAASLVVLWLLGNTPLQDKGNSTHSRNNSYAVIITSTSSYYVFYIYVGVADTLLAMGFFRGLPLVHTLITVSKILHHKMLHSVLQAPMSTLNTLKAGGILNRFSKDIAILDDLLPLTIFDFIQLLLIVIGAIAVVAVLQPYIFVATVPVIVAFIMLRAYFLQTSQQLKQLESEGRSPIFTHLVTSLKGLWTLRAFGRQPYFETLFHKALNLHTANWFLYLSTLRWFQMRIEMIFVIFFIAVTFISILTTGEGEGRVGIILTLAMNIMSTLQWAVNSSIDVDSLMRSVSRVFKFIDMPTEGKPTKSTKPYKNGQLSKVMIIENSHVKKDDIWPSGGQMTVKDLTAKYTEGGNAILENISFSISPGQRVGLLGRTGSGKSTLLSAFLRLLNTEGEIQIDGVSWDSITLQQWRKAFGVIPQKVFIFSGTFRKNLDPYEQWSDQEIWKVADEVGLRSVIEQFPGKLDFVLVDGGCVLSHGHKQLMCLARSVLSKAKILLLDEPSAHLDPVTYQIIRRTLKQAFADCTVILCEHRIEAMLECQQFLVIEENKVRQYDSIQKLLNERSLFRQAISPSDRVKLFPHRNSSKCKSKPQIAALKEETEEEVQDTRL

For the compound `C[C@@H]1CCCOCC(OCc2ccccc2)(C(F)(F)F)C2=NN=C(O2)c2nc(c(C(F)(F)F)cc2N(C(=O)OC(C)(C)C)C(=O)OC(C)(C)C)O1` (stereo partly shown), the ring closure, isolated yield in series [1] (from C[C@H](O)CCCOCC(OCc1ccccc1)(c1nnc(-c2nc(O)c(C(F)(F)F)cc2N(C(=O)OC(C)(C)C)C(=O)OC(C)(C)C)o1)C(F)(F)F, ether bond, PPh3/DIAD, toluene, 6.1 mM, 6.0 h) is 59%.

Compound `C[C@@H]1CCOCCC(OCc2ccccc2)(C(F)(F)F)C2=NN=C(O2)c2nc(c(C(F)(F)F)cc2N(C(=O)OC(C)(C)C)C(=O)OC(C)(C)C)O1` (stereo partly shown) yielded a ring closure, isolated yield in series [1] (from C[C@H](O)CCOCCC(OCc1ccccc1)(c1nnc(-c2nc(O)c(C(F)(F)F)cc2N(C(=O)OC(C)(C)C)C(=O)OC(C)(C)C)o1)C(F)(F)F, ether bond, PPh3/DIAD, toluene, 10.2 mM, 7.0 h) of 57%.

`C[C@@H]1COCCC[C@](OCc2ccccc2)(C(F)(F)F)C2=NN=C(O2)c2nc(c(C(F)(F)F)cc2N(C(=O)OC(C)(C)C)C(=O)OC(C)(C)C)O1` registered a ring closure, isolated yield in series [1] (from tert-butyl N-[2-[5-[(1R)-1-benzyloxy-4-[(25)-2-hydroxypropoxy]-1-(trifluoromethyl)butyl]-1,3,4-oxadiazol-2-yl]-6-hydroxy-5-(trifluoromethyl)-3-pyridyl]-N-tert-butoxycarbonyl-carbamate, ether bond, PPh3/DIAD, THF, 15.0 mM) of 50%.

In turn, `CC(C)(C)OC(=O)N(C(=O)OC(C)(C)C)c1cc(C(F)(F)F)c2nc1-c1nnc(o1)[C@@](OCc1ccccc1)(C(F)(F)F)CCC=CCC(Cc1ccc(F)cc1)O2` (mixture of isomers) gave a ring closure, isolated yield in series [1] (from C=CCC[C@@](OCc1ccccc1)(c1nnc(-c2nc(OC(CC=C)Cc3ccc(F)cc3)c(C(F)(F)F)cc2N(C(=O)OC(C)(C)C)C(=O)OC(C)(C)C)o1)C(F)(F)F, rcm bond, Zhan-1B, DCE, 2.35 mM, 60.0 °C, 1.0 h) of 63%.

In the case of `CC(C)(C)OC(=O)N(C(=O)OC(C)(C)C)c1cc(C(F)(F)F)c2nc1-c1nnc(o1)[C@@](OCc1ccccc1)(C(F)(F)F)CCC=CC[C@@H](COCc1ccccc1)O2` (mixture of isomers), the ring closure, isolated yield in series [1] (from C=CCC[C@@](OCc1ccccc1)(c1nnc(-c2nc(O[C@@H](CC=C)COCc3ccccc3)c(C(F)(F)F)cc2N(C(=O)OC(C)(C)C)C(=O)OC(C)(C)C)o1)C(F)(F)F, rcm bond, Zhan-1B, DCE, 2.78 mM, 60.0 °C, 5.5 h) is 45%.

For `CC(C)(C)OC(=O)Nc1cc(C(F)(F)F)c2nc1-c1nnc(o1)[C@@](OCc1ccccc1)(C(F)(F)F)CC=CCCCO2` (mixture of isomers), the ring closure, isolated yield in series [1] (from C=CCCCOc1nc(-c2nnc([C@@](CC=C)(OCc3ccccc3)C(F)(F)F)o2)c(NC(=O)OC(C)(C)C)cc1C(F)(F)F, rcm bond, Zhan-1B, DCE, 6.7 mM, 60.0 °C, 4.0 h) was found to be 65%.

Compound `CC(C)C1CC=CCC[C@](OCc2ccccc2)(C(F)(F)F)C2=NN=C(O2)c2nc(c(C(F)(F)F)cc2N(C(=O)OC(C)(C)C)C(=O)OC(C)(C)C)O1` (mixture of isomers) had a ring closure, isolated yield in series [1] (from C=CCC[C@@](OCc1ccccc1)(c1nnc(-c2nc(OC(CC=C)C(C)C)c(C(F)(F)F)cc2N(C(=O)OC(C)(C)C)C(=O)OC(C)(C)C)o1)C(F)(F)F, rcm bond, Zhan-1B, DCE, 2.09 mM, 60.0 °C, 6.0 h) of 61%.

`CC1(C)CC=CC[C@](OCc2ccccc2)(C(F)(F)F)C2=NN=C(O2)c2nc(c(C(F)(F)F)cc2N(C(=O)OC(C)(C)C)C(=O)OC(C)(C)C)OC1` (mixture of isomers) yielded a ring closure, isolated yield in series [1] (from C=CCC(C)(C)COc1nc(-c2nnc([C@@](CC=C)(OCc3ccccc3)C(F)(F)F)o2)c(N(C(=O)OC(C)(C)C)C(=O)OC(C)(C)C)cc1C(F)(F)F, rcm bond, Zhan-1B, toluene, 2.2 mM, 110.0 °C, 4.0 h) of 10%.

In series [1] (from C=CCCC(OCc1ccccc1)(c1nnc(-c2nc(OC(C)CC=C)c(C(F)(F)F)cc2NC(=O)OC(C)(C)C)o1)C(F)(F)F, rcm bond, Zhan-1B, DCE, 4.57 mM, 70.0 °C, 16.0 h), `CC1CC=CCCC(OCc2ccccc2)(C(F)(F)F)C2=NN=C(O2)c2nc(c(C(F)(F)F)cc2NC(=O)OC(C)(C)C)O1` (mixture of isomers) registered a ring closure, isolated yield of 36%.

`CCC1CCC=CC[C@](OCc2ccccc2)(C(F)(F)F)C2=NN=C(O2)c2nc(c(C(F)(F)F)cc2N(C(=O)OC(C)(C)C)C(=O)OC(C)(C)C)O1` (mixture of isomers): the ring closure, isolated yield in series [1] (from C=CCCC(CC)Oc1nc(-c2nnc([C@@](CC=C)(OCc3ccccc3)C(F)(F)F)o2)c(N(C(=O)OC(C)(C)C)C(=O)OC(C)(C)C)cc1C(F)(F)F, rcm bond, Zhan-1B, DCE, 5.4 mM, 70.0 °C) worked out at 91%.

The compound `C[C@@H]1CCC=CC(F)(F)C(OCc2ccccc2)C2=NN=C(O2)c2nc(c(C(F)(F)F)cc2[N+](=O)[O-])O1` (mixture of isomers) had a ring closure, isolated yield in series [1] (from C=CCC[C@@H](C)Oc1nc(-c2nnc(C(OCc3ccccc3)C(F)(F)C=C)o2)c([N+](=O)[O-])cc1C(F)(F)F, rcm bond, Grubbs II, DCE, 1.8 mM, 75.0 °C, 0.92 h) of 30%.

`C[C@@H]1CCC=CC(O)C(OCc2ccccc2)(C(F)(F)F)C2=NN=C(O2)c2nc(c(C(F)(F)F)cc2N)O1` (mixture of isomers) had a ring closure, isolated yield in series [1] (from C=CCC[C@@H](C)Oc1nc(-c2nnc(C(OCc3ccccc3)(C(O)C=C)C(F)(F)F)o2)c(N)cc1C(F)(F)F, rcm bond, Zhan-1B, DCE, 3.1 mM, 70.0 °C, 3.5 h) of 76%.

As for `C[C@H]1CC=CCC[C@](OCc2ccccc2)(C(F)(F)F)C2=NN=C(O2)c2nc(c(C(F)(F)F)cc2NC(=O)OC(C)(C)C)O1` (mixture of isomers), the ring closure, isolated yield in series [1] (from C=CCC[C@@](OCc1ccccc1)(c1nnc(-c2nc(O[C@@H](C)CC=C)c(C(F)(F)F)cc2NC(=O)OC(C)(C)C)o1)C(F)(F)F, rcm bond, Hoveyda-Grubbs II, toluene, 5.08 mM, 100.0 °C, 1.0 h) is 22%.

In turn, `C[C@H]1Oc2nc(c(NC(=O)OC(C)(C)C)cc2C(F)(F)F)C2=NN=C(O2)[C@@](OCc2ccccc2)(C(F)(F)F)CC=CCC1OCc1ccccc1` (mixture of isomers) came in with a ring closure, isolated yield in series [1] (from C=CCC(OCc1ccccc1)[C@@H](C)Oc1nc(-c2nnc([C@@](CC=C)(OCc3ccccc3)C(F)(F)F)o2)c(NC(=O)OC(C)(C)C)cc1C(F)(F)F, rcm bond, Zhan-1B, DCE, 6.94 mM, 70.0 °C, 48.0 h) of 56%.

Consider `O=[N+]([O-])c1cc(C(F)(F)F)c2nc1-c1nnc(o1)[C@@](OCc1ccccc1)(C(F)(F)F)CCC=CCC(C1CC1)O2` (mixture of isomers), for which the ring closure, isolated yield in series [1] (from C=CCC[C@@](OCc1ccccc1)(c1nnc(-c2nc(OC(CC=C)C3CC3)c(C(F)(F)F)cc2[N+](=O)[O-])o1)C(F)(F)F, rcm bond, Zhan-1B, DCE, 1.6 mM, 70.0 °C, 2.25 h) is 59%.

In the case of `[2H]C([2H])([2H])[C@@]1([2H])Oc2nc(c(N)cc2C(F)(F)F)C2=NN=C(O2)[C@@](O)(C(F)(F)F)CCCCC1([2H])[2H]` [Compound 39, (6R,12R)-17-amino-11,11,12-trideuterio-12-(trideuteriomethyl)-6,15-bis(trifluoromethyl)-13,19-dioxa-3,4,18-triazatricyclo[12.3.1.12,5]nonadeca-1(18),2,4,14,16-pentaen-6-ol], in series [2], the EC50 was less than 500 nM.

For the compound `[2H]C1CC[C@@H](C)Oc2nc(c(N)cc2C(F)(F)F)C2=NN=C(O2)[C@@](O)(C(F)(F)F)CC1[2H]` (stereo partly drawn) [Compound 44, (6R,12R)-17-amino-8,9-dideuterio-12-methyl-6,15-bis(trifluoromethyl)-13,19-dioxa-3,4,18-triazatricyclo[12.3.1.12,5]nonadeca-1(17),2,4,14(18),15-pentaen-6-ol], the EC50 in series [2] was less than 500 nM.

Turning to `C[C@@H]1COCCC[C@](O)(C(F)(F)F)C2=NN=C(O2)c2nc(c(C(F)(F)F)cc2N)O1` [Compound 59, (6R,12R)-17-amino-12-methyl-6,15-bis(trifluoromethyl)-10,13,19-trioxa-3,4,18-triazatricyclo[12.3.1.12,5]nonadeca-1(18),2,4,14,16-pentaen-6-ol], the EC50 in series [2] was more than 1000 nM.

Regarding `CC1(C)CCCC[C@](O)(C(F)(F)F)C2=NN=C(O2)c2nc(c(C(F)(F)F)cc2N)OC1` [Compound 61, (6R)-17-amino-11,11-dimethyl-6,15-bis(trifluoromethyl)-13,19-dioxa-3,4,18-triazatricyclo[12.3.1.12,5]nonadeca-1(18),2,4,14,16-pentaen-6-ol], in series [2], the EC50 was less than 500 nM.

Broadly, the EC50 is the concentration at which the effect is half-maximal.

These data come from patent US12269831B2, “Modulators of cystic fibrosis transmembrane conductance regulator” (Vertex Pharmaceuticals Incorporated, priority 2020, dated 2025).
